Reference: patent publication US11739098B2 (BRISTOL-MYERS SQUIBB COMPANY, priority 2017, dated 2023)

Experiments:
Format in all cases: cell-based
[1] = target: T1, human TLR7 (Homo sapiens, UniProt Q9NYK1); assay: TLR7 inhibition reporter assay (HEK-Blue cells, SEAP reporter, gardiquimod stimulation); conditions: HEK-Blue cells overexpressing human TLR7, SEAP reporter, gardiquimod 7.5 μM
T1 construct: host or cells: HEK-Blue cells (HEK293-derived reporter line)
T1 sequence (Q9NYK1 27-1049): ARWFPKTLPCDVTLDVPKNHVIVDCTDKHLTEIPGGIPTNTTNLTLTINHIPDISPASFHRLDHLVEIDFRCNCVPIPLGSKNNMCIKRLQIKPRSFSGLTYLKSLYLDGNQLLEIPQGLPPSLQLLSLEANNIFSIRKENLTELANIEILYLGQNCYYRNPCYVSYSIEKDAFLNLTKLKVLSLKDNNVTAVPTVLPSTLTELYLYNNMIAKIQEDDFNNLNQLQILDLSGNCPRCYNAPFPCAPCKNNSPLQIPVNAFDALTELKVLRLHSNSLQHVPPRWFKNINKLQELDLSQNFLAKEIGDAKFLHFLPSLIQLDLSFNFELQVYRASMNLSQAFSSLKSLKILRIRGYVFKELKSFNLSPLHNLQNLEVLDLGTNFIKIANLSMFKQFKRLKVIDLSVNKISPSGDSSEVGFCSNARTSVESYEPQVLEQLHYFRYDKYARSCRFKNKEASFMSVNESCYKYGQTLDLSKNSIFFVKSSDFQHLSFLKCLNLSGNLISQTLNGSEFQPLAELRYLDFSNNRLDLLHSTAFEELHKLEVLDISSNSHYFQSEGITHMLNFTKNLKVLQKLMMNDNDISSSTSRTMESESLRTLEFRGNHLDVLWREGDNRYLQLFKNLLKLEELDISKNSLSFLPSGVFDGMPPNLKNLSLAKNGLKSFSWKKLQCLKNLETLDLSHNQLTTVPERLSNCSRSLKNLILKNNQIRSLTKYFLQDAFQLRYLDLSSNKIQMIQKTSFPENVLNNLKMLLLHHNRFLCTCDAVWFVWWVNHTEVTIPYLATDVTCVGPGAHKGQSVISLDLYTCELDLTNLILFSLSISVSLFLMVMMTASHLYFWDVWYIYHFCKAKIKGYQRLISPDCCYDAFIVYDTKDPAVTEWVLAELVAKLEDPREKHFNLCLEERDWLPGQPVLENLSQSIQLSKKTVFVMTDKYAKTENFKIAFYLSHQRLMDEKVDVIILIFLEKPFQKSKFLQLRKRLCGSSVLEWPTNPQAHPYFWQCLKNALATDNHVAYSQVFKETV
Method in brief: (§1)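 Agonists (final): TLR7 gardiquimod 7.5 μM; TLR8 R848 15.9 μM; TLR9 ODN2006 5 nM. HEK-Blue reporter cells, 30 min RT compound pre-incubation, 0.05 nM–50 μM dose range, 22 h at 37 °C, colorimetric SEAP detection medium. % inhibition relative to agonist+DMSO and known-inhibitor wells.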

[2] = target: T2, human TLR8 (Homo sapiens, UniProt Q9NR97); assay: TLR8 inhibition reporter assay (HEK-Blue cells, SEAP reporter, R848 stimulation); conditions: HEK-Blue cells overexpressing human TLR8, SEAP reporter, R848 15.9 μM
T2 construct: host or cells: HEK-Blue cells (HEK293-derived reporter line)
T2 sequence (Q9NR97 27-1041): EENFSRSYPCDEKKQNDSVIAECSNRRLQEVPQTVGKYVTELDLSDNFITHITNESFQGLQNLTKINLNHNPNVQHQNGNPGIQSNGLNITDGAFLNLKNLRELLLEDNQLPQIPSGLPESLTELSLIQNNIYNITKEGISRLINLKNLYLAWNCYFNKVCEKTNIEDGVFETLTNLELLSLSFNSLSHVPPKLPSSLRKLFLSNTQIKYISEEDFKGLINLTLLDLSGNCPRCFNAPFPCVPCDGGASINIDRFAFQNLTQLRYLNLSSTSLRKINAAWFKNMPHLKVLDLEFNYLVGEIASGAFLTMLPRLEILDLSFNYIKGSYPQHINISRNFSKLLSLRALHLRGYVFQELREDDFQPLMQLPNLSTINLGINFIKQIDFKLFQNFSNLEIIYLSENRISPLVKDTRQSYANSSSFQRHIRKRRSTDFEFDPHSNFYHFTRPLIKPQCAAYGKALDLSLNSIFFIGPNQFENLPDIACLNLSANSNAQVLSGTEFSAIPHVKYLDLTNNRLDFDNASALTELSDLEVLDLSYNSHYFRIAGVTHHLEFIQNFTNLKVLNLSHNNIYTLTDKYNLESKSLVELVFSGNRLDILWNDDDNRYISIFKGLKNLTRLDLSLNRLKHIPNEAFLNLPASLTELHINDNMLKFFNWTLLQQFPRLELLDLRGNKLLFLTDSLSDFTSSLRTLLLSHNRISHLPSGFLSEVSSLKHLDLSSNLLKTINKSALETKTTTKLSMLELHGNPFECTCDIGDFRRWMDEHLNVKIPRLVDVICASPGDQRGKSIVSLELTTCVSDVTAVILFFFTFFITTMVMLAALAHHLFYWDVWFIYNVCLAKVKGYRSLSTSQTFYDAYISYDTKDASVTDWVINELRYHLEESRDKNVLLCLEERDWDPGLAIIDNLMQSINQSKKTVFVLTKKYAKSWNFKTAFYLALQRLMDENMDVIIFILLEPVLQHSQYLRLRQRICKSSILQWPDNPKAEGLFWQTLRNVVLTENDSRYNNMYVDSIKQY
Method in brief: as §1

[3] = target: T3, human TLR9 (Homo sapiens, UniProt Q9NR96); assay: TLR9 inhibition reporter assay (HEK-Blue cells, SEAP reporter, ODN2006 stimulation); conditions: HEK-Blue cells overexpressing human TLR9, SEAP reporter, ODN2006 5 nM
T3 construct: host or cells: HEK-Blue cells (HEK293-derived reporter line)
T3 sequence (Q9NR96 26-1032): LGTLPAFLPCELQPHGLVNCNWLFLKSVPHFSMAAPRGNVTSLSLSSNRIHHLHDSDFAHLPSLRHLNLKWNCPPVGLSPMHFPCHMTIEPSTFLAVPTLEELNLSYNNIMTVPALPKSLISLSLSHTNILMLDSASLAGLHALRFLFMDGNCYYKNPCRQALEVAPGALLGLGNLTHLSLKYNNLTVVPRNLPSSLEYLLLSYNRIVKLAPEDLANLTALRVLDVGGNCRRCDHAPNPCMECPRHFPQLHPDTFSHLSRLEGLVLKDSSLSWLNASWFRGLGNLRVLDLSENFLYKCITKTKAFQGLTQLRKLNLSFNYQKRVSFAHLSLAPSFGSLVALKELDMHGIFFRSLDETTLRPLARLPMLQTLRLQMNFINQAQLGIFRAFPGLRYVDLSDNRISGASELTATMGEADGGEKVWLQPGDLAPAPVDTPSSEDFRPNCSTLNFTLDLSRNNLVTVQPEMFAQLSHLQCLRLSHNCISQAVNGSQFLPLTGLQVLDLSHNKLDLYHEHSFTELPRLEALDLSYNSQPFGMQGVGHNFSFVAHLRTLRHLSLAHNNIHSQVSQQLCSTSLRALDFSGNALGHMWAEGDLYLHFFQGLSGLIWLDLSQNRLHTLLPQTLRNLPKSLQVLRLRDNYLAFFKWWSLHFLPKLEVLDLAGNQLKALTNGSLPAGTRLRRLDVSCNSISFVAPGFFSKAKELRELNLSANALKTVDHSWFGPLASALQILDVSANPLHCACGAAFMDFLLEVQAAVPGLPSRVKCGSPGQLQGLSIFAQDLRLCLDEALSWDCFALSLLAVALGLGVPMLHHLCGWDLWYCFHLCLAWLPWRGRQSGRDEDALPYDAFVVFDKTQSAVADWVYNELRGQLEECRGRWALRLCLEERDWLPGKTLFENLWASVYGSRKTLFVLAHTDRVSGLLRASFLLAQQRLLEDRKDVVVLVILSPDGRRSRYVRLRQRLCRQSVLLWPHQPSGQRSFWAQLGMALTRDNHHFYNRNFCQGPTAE
Method in brief: as §1

| IC50 [1] | IC50 [2] | IC50 [3] | Compound |
| --- | --- | --- | --- |
| < 0.1 µM | 0.1 to 1 µM | 1 to 50 µM | CNC(=O)CN1CCC(c2ccc3[nH]c(-c4cc(C)n5nc(C)cc5c4)c(C(C)C)c3c2)CC1 [Example 419, 2-(4-(2-(2,7-dimethylpyrazolo[1,5-a]pyridin-5-yl)-3-isopropyl-1H-indol-5-yl)piperidin-1-yl)-N-methylacetamide] |
| < 0.1 µM | < 0.1 µM | 0.1 to 1 µM | CCc1c(-c2ccnc3[nH]nc(C)c23)[nH]c2ccc(C3CCN(Cc4cnc[nH]4)CC3)cc12 [Example 873, 4-(5-(1-((1H-imidazol-5-yl)methyl)piperidin-4-yl)-3-ethyl-1H-indol-2-yl)-3-methyl-1H-pyrazolo[3,4-b]pyridine] |
| < 0.1 µM | < 0.1 µM | 0.1 to 1 µM | CNCC(=O)N1CCC(c2ccc3[nH]c(-c4cc(OC)n5ncnc5c4)c(C(C)C)c3c2)CC1 [Example 553, 1-(4-(3-isopropyl-2-(5-methoxy-[1,2,4]triazolo[1,5-a]pyridin-7-yl)-1H-indol-5-yl)piperidin-1-yl)-2-(methylamino)ethan-1-one] |
| < 0.1 µM | 0.1 to 1 µM | 0.1 to 1 µM | CC(C)N1CCC(c2ccc3[nH]c(-c4ccc5nccn5c4)c(CC(F)F)c3c2)CC1 [Example 948, 6-(3-(2,2-difluoroethyl)-5-(1-isopropylpiperidin-4-yl)-1H-indol-2-yl)imidazo[1,2-a]pyridine] |
| < 0.1 µM | < 0.1 µM | 0.1 to 1 µM | CC(C)c1c(-c2ccnc3[nH]ncc23)[nH]c2ccc(C3CCN(C(=O)CCN(C)C)CC3)cc12 [Example 643, 3-(dimethylamino)-1-(4-(3-isopropyl-2-(1H-pyrazolo[3,4-b]pyridin-4-yl)-1H-indol-5-yl)piperidin-1-yl)propan-1-one] |
| < 0.1 µM | < 0.1 µM | 1 to 50 µM | Cc1cc(-c2[nH]c3ccc(C4CCNCC4)cc3c2C(C)C)c(C)n2nnnc12 [Example 74, 6-(3-isopropyl-5-(piperidin-4-yl)-1H-indol-2-yl)-5,8-dimethyltetrazolo[1,5-a]pyridine] |
| < 0.1 µM | 0.1 to 1 µM | 0.1 to 1 µM | CC(C)c1c(-c2ccnc3[nH]ncc23)[nH]c2cc(C(F)(F)F)c(C3CCN(CC4CCN(C(C)C)C4)CC3)cc12 (stereo not drawn) [Example 854, 4-(3-isopropyl-5-(1-((1-isopropylpyrrolidin-3-yl)methyl)piperidin-4-yl)-6-(trifluoromethyl)-1H-indol-2-yl)-1H-pyrazolo[3,4-b]pyridine] |
| 0.1 to 1 µM | < 0.1 µM | 0.1 to 1 µM | CCc1c(-c2ccnc3[nH]cc(Cl)c23)[nH]c2ccc(C3CCN(C4CCN(C(C)C)CC4)CC3)cc12 [Example 842, 3-chloro-4-(3-ethyl-5-(1′-isopropyl-[1,4′-bipiperidin]-4-yl)-1H-indol-2-yl)-1H-pyrrolo[2,3-b]pyridine] |
| < 0.1 µM | < 0.1 µM | 1 to 50 µM | CNCC(=O)N1CCC(c2ccc3[nH]c(-c4cc(C)nc5ccccc45)c(C(C)C)c3c2)CC1 [Example 534, 1-(4-(3-isopropyl-2-(2-methylquinolin-4-yl)-1H-indol-5-yl)piperidin-1-yl)-2-(methylamino)ethan-1-one] |
| < 0.1 µM | 0.1 to 1 µM | 0.1 to 1 µM | Cc1cn2cc(-c3[nH]c4ccc(C5CCN(C6COC6)CC5)cc4c3C(C)C)cc(C)c2n1 [Example 717, 6-(3-isopropyl-5-(1-(oxetan-3-yl)piperidin-4-yl)-1H-indol-2-yl)-2,8-dimethylimidazo[1,2-a]pyridine] |
| < 0.1 µM | < 0.1 µM | 1 to 50 µM | Cc1cc(-c2[nH]c3ccc(C4CCNCC4)cc3c2C(C)C)cn2cc(C(=O)N(C)CCO)nc12 [Example 268, N-(2-hydroxyethyl)-6-(3-isopropyl-5-(piperidin-4-yl)-1H-indol-2-yl)-N,8-dimethylimidazo[1,2-a]pyridine-2-carboxamide] |
| 0.1 to 1 µM | < 0.1 µM | 1 to 50 µM | CC(C)c1c(-c2ccnc3[nH]ncc23)[nH]c2ccc(C3CCN(Cc4cnc5ccccc5c4)CC3)cc12 [Example 895, 3-((4-(3-isopropyl-2-(1H-pyrazolo[3,4-b]pyridin-4-yl)-1H-indol-5-yl)piperidin-1-yl)methyl)quinoline] |
| < 0.1 µM | < 0.1 µM | 0.1 to 1 µM | CNCCN1CCC(c2ccc3[nH]c(-c4ccnc5[nH]ncc45)c(C(C)C)c3c2)C(F)C1 (stereo not drawn) [Example 677, 2-(3-fluoro-4-(3-isopropyl-2-(1H-pyrazolo[3,4-b]pyridin-4-yl)-1H-indol-5-yl)piperidin-1-yl)-N-methylethan-1-amine] |
| < 0.1 µM | < 0.1 µM | 1 to 50 µM | CNC(=O)CN1CCC(c2ccc3[nH]c(-c4cc(C)nc5ccccc45)c(C(C)C)c3c2)CC1 [Example 328, 2-(4-(3-isopropyl-2-(2-methylquinolin-4-yl)-1H-indol-5-yl)piperidin-1-yl)-N-methylacetamide] |
